The target in one data set is hERG (KCNH2) (Homo sapiens, UniProt Q12809). Description: Inhibition of human ERG transfected in CHO cells at 5 ug/mL by rubidium efflux assay relative to control. In kind it is cell-based. Conditions: CHO cells transfected with human ERG.
In data set [1] the target is Hepatocyte growth factor receptor (Homo sapiens, UniProt P08581). Nature of the data set: Inhibition of human MET.
In the next data set the target is Cytochrome P450 2D6 (Homo sapiens, UniProt P10635). Nature of the data set: Inhibition of CYP2D6 in human liver microsomes using dextromethorphan as substrate by LC-MS/MS analysis. Format: ADME, Microsome. For orientation: Liver microsomes are a subcellular fraction often used to study metabolism.
Data set [2] has as its target Tyrosine-protein kinase Lck (Homo sapiens, UniProt P06239). Nature of the data set: Inhibition of human LCK.
Data set [3] can be described thus: Plasma concentration in rat at 10 mg/kg, po measured at 2 hrs. In kind it is ADME, organism-based. More on the design: dose 10 mg/kg, route oral.
The target in data set [4] is Serine/threonine-protein kinase 3 (Homo sapiens, UniProt Q13188). Nature of the data set: Inhibition of human MST2.
In data set [5] the target is Inhibitor of nuclear factor kappa-B kinase subunit beta (Homo sapiens, UniProt O14920). Nature of the data set: Inhibition of human IKKB.
Chain of Inhibitor of nuclear factor kappa-B kinase subunit beta (O14920 whole entry): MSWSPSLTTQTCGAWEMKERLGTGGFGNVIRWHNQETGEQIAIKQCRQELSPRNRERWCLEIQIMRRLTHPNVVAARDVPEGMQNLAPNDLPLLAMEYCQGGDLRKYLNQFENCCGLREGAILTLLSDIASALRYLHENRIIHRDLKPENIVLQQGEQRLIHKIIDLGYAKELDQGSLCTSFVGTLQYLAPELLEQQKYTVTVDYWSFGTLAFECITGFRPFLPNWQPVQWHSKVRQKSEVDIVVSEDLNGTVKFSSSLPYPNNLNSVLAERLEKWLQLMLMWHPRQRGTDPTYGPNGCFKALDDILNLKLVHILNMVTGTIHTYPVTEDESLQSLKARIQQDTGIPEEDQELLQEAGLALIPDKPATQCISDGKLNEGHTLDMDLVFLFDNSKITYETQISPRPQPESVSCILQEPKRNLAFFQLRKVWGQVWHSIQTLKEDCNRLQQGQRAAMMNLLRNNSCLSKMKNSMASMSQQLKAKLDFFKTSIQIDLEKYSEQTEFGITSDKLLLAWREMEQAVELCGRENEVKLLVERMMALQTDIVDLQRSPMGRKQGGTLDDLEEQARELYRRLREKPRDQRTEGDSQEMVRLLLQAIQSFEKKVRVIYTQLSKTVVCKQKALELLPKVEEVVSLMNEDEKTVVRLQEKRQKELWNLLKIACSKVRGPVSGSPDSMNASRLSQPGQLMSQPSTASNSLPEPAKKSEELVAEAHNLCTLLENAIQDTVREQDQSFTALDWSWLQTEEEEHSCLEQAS
In data set [6] the target is Cannabinoid receptor 2 (Homo sapiens) (UniProt P34972). Nature of the data set: Inhibition of CB2 receptor (unknown origin) at 20 ug/mL relative to control.
Chain of Cannabinoid receptor 2 (Homo sapiens) (P34972 whole entry): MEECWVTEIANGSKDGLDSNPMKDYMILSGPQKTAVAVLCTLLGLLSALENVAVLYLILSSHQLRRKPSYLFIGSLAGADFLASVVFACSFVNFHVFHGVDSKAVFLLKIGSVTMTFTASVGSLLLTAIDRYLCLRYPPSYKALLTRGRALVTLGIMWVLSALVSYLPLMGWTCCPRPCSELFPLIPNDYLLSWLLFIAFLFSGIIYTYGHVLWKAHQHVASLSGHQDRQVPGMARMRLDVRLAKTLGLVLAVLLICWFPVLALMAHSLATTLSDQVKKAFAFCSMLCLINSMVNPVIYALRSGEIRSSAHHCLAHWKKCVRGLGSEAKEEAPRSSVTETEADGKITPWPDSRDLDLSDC
In data set [7] the target is Neuropeptide Y receptor type 5 (Homo sapiens) (UniProt Q15761). Nature of the data set: Inhibition of NPYY5 receptor (unknown origin) at 2 ug/mL relative to control.
In another data set the target is Cytochrome P450 2C9 (Homo sapiens, UniProt P11712). Nature of the data set: Time-dependent inhibition of CYP2C9 in human liver microsomes using tolbutamide as substrate incubated for 30 mins prior to substrate addition measured after 30 mins by LC-MS/MS analysis. In kind it is ADME, Microsome.
The target in data set [8] is Alpha-2C adrenergic receptor (Homo sapiens) (UniProt P18825). Nature of the data set: Inhibition of adrenergic alpha-2C receptor (unknown origin) at 1 ug/mL relative to control.
Chain of Alpha-2C adrenergic receptor (Homo sapiens) (P18825 whole entry): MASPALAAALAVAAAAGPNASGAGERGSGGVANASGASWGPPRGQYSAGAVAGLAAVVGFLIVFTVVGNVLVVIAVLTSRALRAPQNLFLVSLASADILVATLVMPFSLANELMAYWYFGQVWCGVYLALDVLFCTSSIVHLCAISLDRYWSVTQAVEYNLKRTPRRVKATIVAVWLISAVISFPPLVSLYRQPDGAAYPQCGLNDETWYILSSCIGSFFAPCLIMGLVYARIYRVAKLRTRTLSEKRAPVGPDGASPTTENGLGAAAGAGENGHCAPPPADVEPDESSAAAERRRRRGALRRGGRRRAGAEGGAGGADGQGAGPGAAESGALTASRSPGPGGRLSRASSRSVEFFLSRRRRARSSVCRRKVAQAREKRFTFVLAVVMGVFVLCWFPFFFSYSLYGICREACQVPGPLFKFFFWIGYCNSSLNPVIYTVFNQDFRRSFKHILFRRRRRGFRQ
The target in data set [9] is Interleukin-1 receptor-associated kinase 4 (Homo sapiens, UniProt Q9NWZ3). Description: Inhibition of human IRAK4.
The target of data set [10] is Calcium/calmodulin-dependent protein kinase type IV (Homo sapiens, UniProt Q16566). Nature of the data set: Inhibition of human CAMK4.
Chain of Calcium/calmodulin-dependent protein kinase type IV (Q16566 whole entry): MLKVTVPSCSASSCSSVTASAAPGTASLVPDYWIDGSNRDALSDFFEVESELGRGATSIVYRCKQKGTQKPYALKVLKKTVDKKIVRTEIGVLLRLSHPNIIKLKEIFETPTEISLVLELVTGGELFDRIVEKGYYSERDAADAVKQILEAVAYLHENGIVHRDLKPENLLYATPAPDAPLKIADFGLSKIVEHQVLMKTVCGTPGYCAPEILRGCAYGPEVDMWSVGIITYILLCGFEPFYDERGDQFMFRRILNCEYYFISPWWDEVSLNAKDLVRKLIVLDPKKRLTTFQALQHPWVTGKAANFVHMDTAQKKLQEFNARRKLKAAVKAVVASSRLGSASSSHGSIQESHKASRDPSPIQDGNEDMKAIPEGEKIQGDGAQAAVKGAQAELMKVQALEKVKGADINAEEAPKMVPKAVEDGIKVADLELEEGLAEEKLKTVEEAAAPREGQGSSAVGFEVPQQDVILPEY
The target of data set [11] is D(2) dopamine receptor (Homo sapiens) (UniProt P14416). Nature of the data set: Inhibition of dopamine D2 receptor (unknown origin) at 2 ug/mL relative to control.
Chain of D(2) dopamine receptor (Homo sapiens) (P14416 whole entry): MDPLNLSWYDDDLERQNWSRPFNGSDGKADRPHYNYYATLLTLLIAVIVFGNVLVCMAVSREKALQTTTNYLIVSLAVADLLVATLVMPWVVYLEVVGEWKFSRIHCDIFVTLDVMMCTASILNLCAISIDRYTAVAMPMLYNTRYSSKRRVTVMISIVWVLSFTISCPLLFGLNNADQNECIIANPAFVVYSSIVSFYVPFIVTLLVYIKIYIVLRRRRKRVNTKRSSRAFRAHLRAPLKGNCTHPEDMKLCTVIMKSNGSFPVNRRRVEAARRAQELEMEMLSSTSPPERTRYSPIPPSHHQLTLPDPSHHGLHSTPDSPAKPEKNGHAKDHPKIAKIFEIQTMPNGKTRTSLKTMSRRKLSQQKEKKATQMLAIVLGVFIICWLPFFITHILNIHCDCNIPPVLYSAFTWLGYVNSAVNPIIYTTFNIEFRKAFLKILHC
The target in data set [12] is Alpha-2A adrenergic receptor (Homo sapiens) (UniProt P08913). Description: Inhibition of adrenergic alpha-2A receptor (unknown origin) at 1 ug/mL relative to control.
For data set [13], the target named is Adenosine receptor A1 (Homo sapiens) (UniProt P30542). Description: Inhibition of adenosine A1 receptor (unknown origin) at 2 ug/mL relative to control.
Chain of Adenosine receptor A1 (Homo sapiens) (P30542 whole entry): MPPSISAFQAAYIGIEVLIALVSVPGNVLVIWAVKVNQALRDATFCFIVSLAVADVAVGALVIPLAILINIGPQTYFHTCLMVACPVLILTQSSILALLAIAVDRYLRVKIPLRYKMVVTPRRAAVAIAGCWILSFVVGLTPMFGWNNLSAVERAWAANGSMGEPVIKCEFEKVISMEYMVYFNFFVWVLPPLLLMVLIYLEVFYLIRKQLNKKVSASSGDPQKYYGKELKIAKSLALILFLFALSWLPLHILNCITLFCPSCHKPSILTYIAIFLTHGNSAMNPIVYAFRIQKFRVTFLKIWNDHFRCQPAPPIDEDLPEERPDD
Data set [14] addresses Muscarinic acetylcholine receptor M1 (Homo sapiens) (UniProt P11229). Nature of the data set: Inhibition of muscarinic M1 receptor (unknown origin) at 2 ug/mL relative to control.

Chain of Muscarinic acetylcholine receptor M1 (Homo sapiens) (P11229 whole entry): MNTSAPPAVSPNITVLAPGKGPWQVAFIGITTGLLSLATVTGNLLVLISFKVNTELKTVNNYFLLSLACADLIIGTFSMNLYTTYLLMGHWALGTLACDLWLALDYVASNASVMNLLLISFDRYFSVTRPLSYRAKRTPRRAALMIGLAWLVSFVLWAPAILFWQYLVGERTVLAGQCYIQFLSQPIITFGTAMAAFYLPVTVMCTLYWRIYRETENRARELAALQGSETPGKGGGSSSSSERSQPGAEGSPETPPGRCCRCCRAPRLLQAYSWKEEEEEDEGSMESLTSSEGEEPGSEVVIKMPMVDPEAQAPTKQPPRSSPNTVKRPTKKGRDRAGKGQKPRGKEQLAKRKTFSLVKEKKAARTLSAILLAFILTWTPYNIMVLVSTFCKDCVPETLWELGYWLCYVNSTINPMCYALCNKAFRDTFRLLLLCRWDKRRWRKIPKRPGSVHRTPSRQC
Chain of Hepatocyte growth factor receptor (P08581 whole entry): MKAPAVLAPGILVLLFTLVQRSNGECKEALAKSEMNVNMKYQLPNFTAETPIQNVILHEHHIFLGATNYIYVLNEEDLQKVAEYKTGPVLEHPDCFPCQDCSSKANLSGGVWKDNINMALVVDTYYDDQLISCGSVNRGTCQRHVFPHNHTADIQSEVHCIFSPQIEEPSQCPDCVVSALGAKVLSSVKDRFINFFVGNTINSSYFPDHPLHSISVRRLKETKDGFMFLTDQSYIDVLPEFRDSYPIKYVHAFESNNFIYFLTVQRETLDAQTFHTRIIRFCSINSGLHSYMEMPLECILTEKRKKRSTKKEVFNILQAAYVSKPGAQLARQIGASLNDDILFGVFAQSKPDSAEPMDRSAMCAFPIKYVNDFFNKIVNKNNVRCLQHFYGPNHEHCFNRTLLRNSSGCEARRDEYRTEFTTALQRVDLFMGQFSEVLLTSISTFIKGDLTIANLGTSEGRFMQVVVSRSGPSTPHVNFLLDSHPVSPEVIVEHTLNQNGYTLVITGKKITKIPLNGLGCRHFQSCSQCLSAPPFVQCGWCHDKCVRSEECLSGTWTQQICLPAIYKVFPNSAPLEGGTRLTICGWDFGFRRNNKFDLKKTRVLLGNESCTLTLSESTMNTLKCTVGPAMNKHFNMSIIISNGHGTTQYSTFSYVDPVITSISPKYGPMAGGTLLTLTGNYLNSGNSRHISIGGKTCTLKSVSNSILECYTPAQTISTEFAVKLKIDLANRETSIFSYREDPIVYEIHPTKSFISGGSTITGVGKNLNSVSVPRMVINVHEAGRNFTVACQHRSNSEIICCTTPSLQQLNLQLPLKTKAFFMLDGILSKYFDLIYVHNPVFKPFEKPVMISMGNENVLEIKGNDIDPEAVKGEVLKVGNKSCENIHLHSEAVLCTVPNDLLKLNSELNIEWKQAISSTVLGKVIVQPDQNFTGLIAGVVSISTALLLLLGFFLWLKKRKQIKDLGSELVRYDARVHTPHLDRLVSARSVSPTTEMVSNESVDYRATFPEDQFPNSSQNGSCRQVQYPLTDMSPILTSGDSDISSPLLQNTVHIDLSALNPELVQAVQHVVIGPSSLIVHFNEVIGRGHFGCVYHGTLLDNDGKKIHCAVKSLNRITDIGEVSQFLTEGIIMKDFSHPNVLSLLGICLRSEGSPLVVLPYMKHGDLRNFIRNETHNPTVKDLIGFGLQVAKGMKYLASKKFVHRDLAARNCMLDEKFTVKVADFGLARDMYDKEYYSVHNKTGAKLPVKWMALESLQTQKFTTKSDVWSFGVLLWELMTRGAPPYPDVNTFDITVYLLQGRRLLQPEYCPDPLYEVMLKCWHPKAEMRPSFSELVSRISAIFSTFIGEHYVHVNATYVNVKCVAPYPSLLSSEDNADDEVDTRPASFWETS

Broadly, the inhibition is the drop in the measured response relative to a control, in per cent. Broadly, the IC50 is the concentration that inhibits the measured activity by half. Regarding `COc1ccc2c(c1)C(=O)N(c1nc(C(=O)Nc3cnccc3N3CCNCC3)cs1)C2`, on hERG (KCNH2), the inhibition at 5 ug/mL is 65%. For the same molecule, the IC50 was above 30 µM in [1]; above 30 µM at Cytochrome P450 2D6; above 30 µM in data set [2]; 2.1 µM in [4]; above 30 µM in data set [5]; above 30 µM against Cytochrome P450 2C9. In addition, the IC50 worked out at 1.1 µM in [9] and 26 µM in data set [10]. Moreover, in [3], the concentration at 2 h came to 150 ng/mL. Moreover, the inhibition in data set [6] was 25.1%; in [7], 13.2%; in [8] it was 13.8%; in data set [11], 16.9%; in data set [12] it was 16.1%; in data set [13], -3.2%. Moreover, the inhibition in data set [14] stood at 43.8%.

The record behind these values is ChEMBL document CHEMBL2380296, “Structure-based design and optimization of 2-aminothiazole-4-carboxamide as a new class of CHK1 inhibitors” (Bioorg Med Chem Lett, 2013).
